Experimental data from ChEMBL document CHEMBL2074117, “Influence of redox-active compounds and PXR-activators on human MRP1 and MRP2 gene expression” (Toxicology, 2002).

Tests used:
[1] = target: T1, ATP-binding cassette sub-family C member 2 (Homo sapiens, UniProt Q92887); assay: TP_TRANSPORTER: Western blot, HepG2 cells; type: functional, cell-based
[2] = target: T1, ATP-binding cassette sub-family C member 2; assay: TP_TRANSPORTER: RT-PCR in HepG2 cells; type: functional, cell-based

T1 sequence (Q92887 whole entry): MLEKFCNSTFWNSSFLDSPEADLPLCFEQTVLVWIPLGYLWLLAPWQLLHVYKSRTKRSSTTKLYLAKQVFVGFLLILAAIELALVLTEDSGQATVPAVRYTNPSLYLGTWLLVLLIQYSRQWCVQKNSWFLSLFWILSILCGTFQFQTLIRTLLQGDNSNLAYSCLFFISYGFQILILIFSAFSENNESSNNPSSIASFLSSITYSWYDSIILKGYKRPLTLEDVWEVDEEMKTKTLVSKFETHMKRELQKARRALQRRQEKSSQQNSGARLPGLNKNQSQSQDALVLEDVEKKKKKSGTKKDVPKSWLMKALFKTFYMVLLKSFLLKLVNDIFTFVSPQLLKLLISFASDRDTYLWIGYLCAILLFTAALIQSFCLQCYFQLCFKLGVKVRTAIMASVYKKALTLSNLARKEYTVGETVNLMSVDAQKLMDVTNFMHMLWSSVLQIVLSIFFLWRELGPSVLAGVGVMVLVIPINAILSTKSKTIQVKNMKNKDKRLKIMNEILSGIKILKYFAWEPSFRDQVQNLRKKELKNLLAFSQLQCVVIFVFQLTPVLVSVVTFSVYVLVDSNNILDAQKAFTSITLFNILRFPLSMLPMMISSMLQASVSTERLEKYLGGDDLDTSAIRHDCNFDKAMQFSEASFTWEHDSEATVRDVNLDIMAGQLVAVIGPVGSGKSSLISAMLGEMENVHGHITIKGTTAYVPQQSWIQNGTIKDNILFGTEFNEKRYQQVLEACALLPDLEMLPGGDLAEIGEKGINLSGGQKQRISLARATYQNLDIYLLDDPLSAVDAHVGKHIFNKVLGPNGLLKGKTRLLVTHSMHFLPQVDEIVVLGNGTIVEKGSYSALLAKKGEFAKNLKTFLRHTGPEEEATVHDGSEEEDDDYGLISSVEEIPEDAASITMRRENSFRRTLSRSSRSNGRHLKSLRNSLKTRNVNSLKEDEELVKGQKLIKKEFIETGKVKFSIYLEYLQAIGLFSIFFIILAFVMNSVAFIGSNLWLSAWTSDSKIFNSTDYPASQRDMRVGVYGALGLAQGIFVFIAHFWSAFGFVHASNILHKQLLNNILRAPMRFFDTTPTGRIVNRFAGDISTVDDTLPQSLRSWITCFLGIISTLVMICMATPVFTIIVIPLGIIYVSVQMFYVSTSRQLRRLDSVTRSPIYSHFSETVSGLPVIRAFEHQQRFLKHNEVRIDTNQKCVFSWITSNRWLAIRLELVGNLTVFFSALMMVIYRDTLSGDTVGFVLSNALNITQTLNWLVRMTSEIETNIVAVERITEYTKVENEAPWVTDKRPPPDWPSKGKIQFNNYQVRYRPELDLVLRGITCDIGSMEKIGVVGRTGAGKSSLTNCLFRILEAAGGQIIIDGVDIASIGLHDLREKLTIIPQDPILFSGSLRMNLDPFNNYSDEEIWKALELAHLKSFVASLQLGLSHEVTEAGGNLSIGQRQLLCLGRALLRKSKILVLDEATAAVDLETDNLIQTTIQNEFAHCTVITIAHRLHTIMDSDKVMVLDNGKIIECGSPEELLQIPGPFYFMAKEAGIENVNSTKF

SMILES | Activity [1] | Activity [2]
Clc1ccccc1C(c1ccccc1)(c1ccccc1)n1ccnc1 [CLOTRIMAZOLE] | inducer [+] | inducer [+]
CC(C)(C)c1cc(O)ccc1O [E319] | inducer [+] | inducer [+]
CO[C@H]1/C=C/O[C@@]2(C)Oc3c(C)c(O)c4c(O)c(c(/C=N/N5CCN(C)CC5)c(O)c4c3C2=O)NC(=O)/C(C)=C\C=C\[C@H](C)[C@H](O)[C@@H](C)[C@@H](O)[C@@H](C)[C@H](OC(C)=O)[C@@H]1C [RIFAMPIN] | inducer [+] | inducer [+]
O[As](O)O [TRIHYDROXYARSENITE(III)] | inducer [+] | inducer [+]
